Like-named read-outs stand apart in the source and are kept apart here. Starred links: 1 amine or outer side, 2 acyl side, 3 side chain; linkers in the order of their positions; H or OH if unused. Non-standard residues stand in square brackets, D forms with d. Residues, ends and D or L forms follow the SMILES beside them. Groups on a side chain read outwards from the residue. No end group written: not given here. *: point of attachment. C20 diacid = O=C(O)CCCCCCCCCCCCCCCCCCC(=O)*; C18 diacid = O=C(O)CCCCCCCCCCCCCCCCC(=O)*; αMePhe(2-F) = C[C@](N)(Cc1ccccc1F)C(=O)O; γGlu = O=C(O)[C@H](CCC(=O)[*:2])N[*:1]; αMe4Pal = C[C@](N)(Cc1ccncc1)C(=O)O; αMeY = C[C@](N)(Cc1ccc(O)cc1)C(=O)O; αMeF = C[C@](N)(Cc1ccccc1)C(=O)O; 4Pal = N[C@@H](Cc1ccncc1)C(=O)O; αMeL = CC(C)C[C@](C)(N)C(=O)O; αMeS = C[C@](N)(CO)C(=O)O; Orn = NCCC[C@H](N)C(=O)O; AEEA = NCCOCCOCC(=O)O; Aib = CC(C)(N)C(=O)O
Columns and labels:
Format in all cases: cell-based
[1] = target: human GcgR (Homo sapiens, UniProt P47871); assay: Functional cAMP activity in the presence of 1% HSA; settings: read-out: cAMP Rel EC50, hGcgR
[2] = target: hGcgR (Homo sapiens, UniProt P47871); assay: Functional cAMP activation in the presence of 0.1% casein (no HSA); settings: read-out: Relative cAMP EC50, hGcgR;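 further: intracellular cAMP rise after 30 min at 37 °C, read by HTRF against a cAMP standard curve, scaled from buffer only (0%) to maximal control ligand response (100%)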
[3] = target: T1, hGIPR (Homo sapiens, UniProt P48546); assay: as above; settings: read-out: Relative cAMP EC50, hGIPR;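 further: intracellular cAMP rise after 30 min at 37 °C read by HTRF against a standard curve, scaled between buffer alone (0%) and top control ligand concentration (100%), four-parameter fit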
T1 sequence (P48546 22-466): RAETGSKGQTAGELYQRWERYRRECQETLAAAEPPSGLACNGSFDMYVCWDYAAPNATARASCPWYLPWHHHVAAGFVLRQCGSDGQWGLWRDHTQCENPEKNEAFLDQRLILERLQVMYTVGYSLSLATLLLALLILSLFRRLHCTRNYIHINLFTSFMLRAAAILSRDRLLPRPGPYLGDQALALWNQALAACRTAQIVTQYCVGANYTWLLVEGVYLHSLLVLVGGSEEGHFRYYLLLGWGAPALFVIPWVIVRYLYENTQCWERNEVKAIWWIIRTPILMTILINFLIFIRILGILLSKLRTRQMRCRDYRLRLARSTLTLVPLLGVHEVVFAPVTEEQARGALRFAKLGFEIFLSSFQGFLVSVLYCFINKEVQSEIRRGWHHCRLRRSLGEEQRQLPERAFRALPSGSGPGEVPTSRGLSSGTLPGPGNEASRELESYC

[4] = target: T2, hGLP-1R (Homo sapiens, UniProt P43220); assay: as above; settings: read-out: Relative cAMP EC50, hGLP-1R;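 further: intracellular cAMP rise after 30 min at 37 °C read by HTRF, normalized between buffer only (0%) and maximal control ligand (100%), four-parameter variable-slope fit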
[5] = target: T2, hGLP-1R; assay: Functional cAMP activity in the presence of 1% HSA; settings: read-out: cAMP Rel EC50, hGLP-1R
[6] = target: T1, hGIPR; assay: Functional cAMP activity in the presence of 1% HSA; settings: read-out: cAMP Rel EC50, hGIPR
[7] = in the presence of 0.1% casein (no HSA), geometric mean

hGcgR, sequence (P47871 26-477): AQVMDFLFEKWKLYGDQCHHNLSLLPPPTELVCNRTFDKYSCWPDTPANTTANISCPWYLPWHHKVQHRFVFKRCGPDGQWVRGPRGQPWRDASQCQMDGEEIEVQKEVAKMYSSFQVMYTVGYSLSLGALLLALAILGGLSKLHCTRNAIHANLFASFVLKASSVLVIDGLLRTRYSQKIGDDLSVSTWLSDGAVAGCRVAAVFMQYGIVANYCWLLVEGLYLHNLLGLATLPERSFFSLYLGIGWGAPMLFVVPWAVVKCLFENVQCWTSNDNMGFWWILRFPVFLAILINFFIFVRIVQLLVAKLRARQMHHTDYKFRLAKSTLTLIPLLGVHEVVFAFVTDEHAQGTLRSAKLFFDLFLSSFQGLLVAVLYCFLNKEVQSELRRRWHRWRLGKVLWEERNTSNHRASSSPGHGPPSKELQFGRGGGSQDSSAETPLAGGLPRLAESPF
human GcgR, sequence (P47871 26-477): as above
T2 sequence (P43220 24-463): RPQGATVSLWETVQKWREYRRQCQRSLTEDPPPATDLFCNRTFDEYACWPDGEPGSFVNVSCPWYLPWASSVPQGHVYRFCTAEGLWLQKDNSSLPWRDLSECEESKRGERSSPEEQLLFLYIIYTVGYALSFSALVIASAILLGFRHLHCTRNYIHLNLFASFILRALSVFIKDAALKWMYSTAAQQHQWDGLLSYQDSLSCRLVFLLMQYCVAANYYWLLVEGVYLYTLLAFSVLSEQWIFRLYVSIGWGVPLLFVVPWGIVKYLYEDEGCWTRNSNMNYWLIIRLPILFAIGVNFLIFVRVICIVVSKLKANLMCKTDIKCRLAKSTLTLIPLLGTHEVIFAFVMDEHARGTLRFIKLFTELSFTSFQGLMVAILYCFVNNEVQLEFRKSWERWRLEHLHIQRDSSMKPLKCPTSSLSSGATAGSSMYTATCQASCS

| Molecule | EC50 [1] | EC50 [2, 7] | EC50 [3, 7] | EC50 [4, 7] | EC50 [5] | EC50 [6] | EC50 [2] | EC50 [3] | EC50 [4] |
| --- | --- | --- | --- | --- | --- | --- | --- | --- | --- |
| H-Y[Aib]QGTFTSD[4Pal]S[Orn][αMeL]LDKK([γGlu-γGlu-C18 diacid])AQ[αMe4Pal]AFIE[αMeY]LIAGGPSSGAPPPEGS-NH2 [Example 1015] | 357 nM | 3.53 nM | 0.0822 nM | 1.01 nM | 92.4 nM | 9.08 nM | – | – | – |
| H-Y[Aib]QGT[αMePhe(2-F)]TSD[4Pal]SILLD[Orn]K([γGlu-γGlu-C18 diacid])AQ[Aib][Orn]FIE[αMeY]LEEGGPSSGAPPPSGTGE-NH2 [Example 674] | 168 nM | – | – | – | 17.3 nM | 2.54 nM | 2.09 nM | 0.0264 nM | 0.21 nM |
| H-Y[Aib]QGTFTSD[4Pal]SQ[αMeL]LDKK([γGlu-γGlu-γGlu-C18 diacid])AQ[αMe4Pal]AFIEYLIE[Aib]GPSSGAPPPSGS-NH2 [Example 859] | 2250 nM | 8.45 nM | 0.12 nM | 2.38 nM | 543 nM | 32.3 nM | – | – | – |
| Y[Aib]QGTFTSDYSI[αMeL]LDKQAAK([AEEA-AEEA-γGlu-C20 diacid])QFVEWLLAGGPSSGEPPPGEG-NH2 [Example 320] | 1170 nM | 6.87 nM | 0.274 nM | 2.58 nM | 328 nM | 55.3 nM | – | – | – |
| H-Y[Aib]QGTFTSDFS[Orn][αMeL]LDKK([AEEA-γGlu-C18 diacid])AQ[Aib]AFIEYLLAGGPSSGAPPPSGS[AEEA]-NH2 [Example 89] | 916 nM | 11.6 nM | 0.167 nM | 3.31 nM | 458 nM | 19.3 nM | – | – | – |
| H-Y[Aib]QGT[αMePhe(2-F)]TSD[4Pal]SI[αMeL]LD[Orn]K([γGlu-γGlu-C18 diacid])AQ[αMe4Pal][Orn]FI[dE][αMeY]LIEGGPSSGEPPPEGTGE-NH2 [Example 688] | 182 nM | – | – | – | 19.5 nM | 0.61 nM | 2.06 nM | 0.00881 nM | 0.304 nM |
| H-Y[Aib]QGTFTSDFS[Orn][αMeL]LDKK([AEEA-γGlu-C18 diacid])AQ[Aib]AFIEYLLEGGESSGAPPPGGS-NH2 [Example 161] | 902 nM | 4.83 nM | 0.555 nM | 5.22 nM | 963 nM | 87.3 nM | – | – | – |
| CC[C@H](C)[C@H](NC(=O)[C@H](CC(C)C)NC(=O)[C@H](Cc1ccc(O)cc1)NC(=O)[C@H](CCC(=O)O)NC(=O)[C@@H](NC(=O)[C@H](Cc1ccccc1)NC(=O)[C@H](C)NC(=O)[C@](C)(Cc1ccncc1)NC(=O)[C@H](CCC(N)=O)NC(=O)[C@H](C)NC(=O)[C@H](CCCCNC(=O)CC[C@H](NC(=O)CC[C@H](NC(=O)CCCCCCCCCCCCCCCCC(=O)O)C(=O)O)C(=O)O)NC(=O)[C@H](CCCCN)NC(=O)[C@H](CC(=O)O)NC(=O)[C@H](CC(C)C)NC(=O)[C@](C)(CC(C)C)NC(=O)[C@H](CCC(N)=O)NC(=O)[C@H](CO)NC(=O)[C@H](Cc1ccncc1)NC(=O)[C@H](CC(=O)O)NC(=O)[C@H](CO)NC(=O)[C@@H](NC(=O)[C@H](Cc1ccccc1)NC(=O)[C@@H](NC(=O)CNC(=O)[C@H](CCC(N)=O)NC(=O)C(C)(C)NC(=O)[C@@H](N)Cc1ccc(O)cc1)[C@@H](C)O)[C@@H](C)O)[C@@H](C)CC)C(=O)N[C@@H](C)C(=O)NCC(=O)NCC(=O)N1CCC[C@H]1C(=O)N[C@@H](CO)C(=O)N[C@@H](CO)C(=O)NCC(=O)N[C@@H](C)C(=O)N1CCC[C@H]1C(=O)N1CCC[C@H]1C(=O)N1CCC[C@H]1C(=O)N[C@@H](CO)C(=O)NCC(=O)N[C@@H](CO)C(N)=O [Example 870] | 736 nM | 4.4 nM | 0.0698 nM | 0.962 nM | 71.2 nM | 7.29 nM | – | – | – |
| CC[C@H](C)[C@H](NC(=O)[C@H](Cc1ccccc1)NC(=O)[C@H](C)NC(=O)C(C)(C)NC(=O)[C@H](CCC(N)=O)NC(=O)[C@H](C)NC(=O)[C@H](CCCCNC(=O)COCCOCCNC(=O)CC[C@H](NC(=O)CCCCCCCCCCCCCCCCC(=O)O)C(=O)O)NC(=O)[C@H](CCCN)NC(=O)[C@H](CC(=O)O)NC(=O)[C@H](CC(C)C)NC(=O)[C@](C)(CC(C)C)NC(=O)[C@@H](NC(=O)[C@H](CO)NC(=O)[C@H](Cc1ccc(O)cc1)NC(=O)[C@H](CC(=O)O)NC(=O)[C@H](CO)NC(=O)[C@@H](NC(=O)[C@](C)(Cc1ccccc1)NC(=O)[C@@H](NC(=O)CNC(=O)[C@H](CCC(N)=O)NC(=O)C(C)(C)NC(=O)[C@@H](N)Cc1ccc(O)cc1)[C@@H](C)O)[C@@H](C)O)[C@@H](C)CC)C(=O)N[C@@H](CCC(=O)O)C(=O)N[C@@H](Cc1ccc(O)cc1)C(=O)N[C@@H](CC(C)C)C(=O)N[C@@H](CCC(=O)O)C(=O)N[C@@H](CCC(=O)O)C(=O)NCC(=O)NCC(=O)N1CCC[C@H]1C(=O)N[C@@H](CO)C(=O)N[C@@H](CO)C(=O)NCC(=O)N[C@@H](C)C(=O)N1CCC[C@H]1C(=O)N1CCC[C@H]1C(=O)N1CCC[C@H]1C(=O)N[C@@H](CCC(=O)O)C(N)=O [Example 397] (H-Y[Aib]QGT[αMeF]TSDYSI[αMeL]LD[Orn]K([AEEA-γGlu-C18 diacid])AQ[Aib]AFIEYLEEGGPSSGAPPPE-NH2) | 1110 nM | – | – | – | 34.9 nM | 10.1 nM | 5.22 nM | 0.0247 nM | 0.2 nM |
| H-Y[Aib]QGTFTSD[4Pal]S[Orn][αMeL]LDKK([AEEA-γGlu-γGlu-C18 diacid])AQ[αMe4Pal]AFIEYLIE[Aib]GPSSGAPPPSGS-NH2 [Example 867] | 242 nM | 2.47 nM | 0.216 nM | 7.38 nM | 474 nM | 16.2 nM | – | – | – |
| H-Y[Aib]QGTFTSDFS[Orn][αMeL]LDKK([AEEA-γGlu-C18 diacid])AQ[Aib]AFIEWLLEGGSSSGAPPPGGT-NH2 [Example 272] | 1540 nM | 7.91 nM | 0.254 nM | 2.62 nM | 486 nM | 36.3 nM | – | – | – |
| CC[C@H](C)[C@H](NC(=O)[C@H](Cc1ccccc1)NC(=O)[C@H](CCCN)NC(=O)C(C)(C)NC(=O)[C@H](CCC(N)=O)NC(=O)[C@H](C)NC(=O)[C@H](CCCCNC(=O)CC[C@H](NC(=O)CC[C@H](NC(=O)CCCCCCCCCCCCCCCCC(=O)O)C(=O)O)C(=O)O)NC(=O)[C@H](CCCN)NC(=O)[C@H](CC(=O)O)NC(=O)[C@H](CC(C)C)NC(=O)[C@](C)(CC(C)C)NC(=O)[C@@H](NC(=O)[C@H](CO)NC(=O)[C@H](Cc1ccncc1)NC(=O)[C@H](CC(=O)O)NC(=O)[C@H](CO)NC(=O)[C@@H](NC(=O)[C@](C)(Cc1ccccc1F)NC(=O)[C@@H](NC(=O)CNC(=O)[C@H](CCC(N)=O)NC(=O)C(C)(C)NC(=O)[C@@H](N)Cc1ccc(O)cc1)[C@@H](C)O)[C@@H](C)O)[C@@H](C)CC)C(=O)N[C@H](CCC(=O)O)C(=O)N[C@@](C)(Cc1ccc(O)cc1)C(=O)N[C@@H](CC(C)C)C(=O)N[C@@H](CC(C)C)C(=O)N[C@@H](CCC(=O)O)C(=O)NCC(=O)NCC(=O)N1CCC[C@H]1C(=O)N[C@@H](CO)C(=O)N[C@@H](CO)C(=O)NC(C)(C)C(=O)N[C@@H](CCC(=O)O)C(=O)N1CCC[C@H]1C(=O)N1CCC[C@H]1C(=O)N1CCC[C@H]1C(=O)N[C@@H](CCC(=O)O)C(N)=O [Example 373] (H-Y[Aib]QGT[αMePhe(2-F)]TSD[4Pal]SI[αMeL]LD[Orn]K([γGlu-γGlu-C18 diacid])AQ[Aib][Orn]FI[dE][αMeY]LLEGGPSS[Aib]EPPPE-NH2) | 666 nM | 4.48 nM | 0.0183 nM | 0.392 nM | 54.5 nM | 1.97 nM | – | – | – |
| H-Y[Aib]QGT[αMePhe(2-F)]TSD[4Pal][αMeS]ILLD[Orn]K([γGlu-γGlu-C18 diacid])AQ[Aib][Orn]FI[dE]YLIEGGPSSGEPPPEGSEE-NH2 [Example 603] | 419 nM | – | – | – | 49.5 nM | 4.99 nM | 5.43 nM | 0.102 nM | 0.688 nM |
| H-Y[Aib]QGTFTSD[4Pal]S[Orn][αMeL]LD[Orn]K([γGlu-γGlu-C18 diacid])AQ[αMe4Pal]AFIEYLIAGGPSSGEPPPSGTE-NH2 [Example 984] | 409 nM | 4.5 nM | 0.232 nM | 2.07 nM | 160 nM | 23.5 nM | – | – | – |
| Y[Aib]QGTFTSD[4Pal]SQ[αMeL]LD[Orn]K([γGlu-γGlu-C18 diacid])AQ[αMe4Pal]AFIEYLIE[Aib]GPSSGAPPPSGS-NH2 [Example 935] | 659 nM | 4.04 nM | 0.123 nM | 1.71 nM | 172 nM | 16.9 nM | – | – | – |
| H-Y[Aib]QGTFTSDFS[Orn][αMeL]LDKK([AEEA-γGlu-C18 diacid])AQ[Aib]AFIEYLLEGGPSSGAPPPEGT-NH2 [Example 160] | 479 nM | 4.32 nM | 0.354 nM | 5.39 nM | 482 nM | 44.4 nM | – | – | – |

Reference: patent US20240270821A1, “GIP/GLP1/GCG TRI-RECEPTOR AGONISTS AND USES THEREOF” (priority 2023, published 2024)
